Reference: patent US10344276B2, “Diagnostic and treatment for chronic and acute phase myeloid leukemia” (Duke University, priority 2009, dated 2019)

How the values were obtained:
blast crisis CML / AML = assay: Transplantation of shRNA-infected blast crisis CML/AML cells into irradiated mice; assay type: in vivo
Description: Mouse models of CML were generated by transducing bone marrow stem and progenitor cells with retroviruses carrying BCR-ABL (chronic phase), or BCR-ABL and NUP98-HOXA9 (blast crisis phase) and transplanted into irradiated recipient mice. The development of CML was confirmed by flow cytometry and histopathology. Transgenic Notch reporter (TNR), Rag1−/−, and C57BL6/J were used as transplant donors, and C57Bl6/J CD45.1 and CD1 mice were used as transplant recipients. All mice were 8-12 weeks of age. Mice were bred and maintained on acidified water after transplantation in the animal care facility at Duke University Medical Center. All live animal experiments were performed according to protocols approved by the Duke University Institutional Animal Care and Use Committee. For Msi2 knockdown experiments, lineage negative blast crisis CML cells were infected with Msi2 or control Luciferase shRNA retroviral constructs and leukemia incidence monitored.
Bone marrow c-Kit+ or KLS cells from C57BL6/J or TNR mice were enriched and cultured overnight in X-vivo15 with 10% FBS, 50 μM 2-mercaptoethanol, 100 ng/mL SCF, and 20 ng/mL TPO in a 96 well U-bottom plate or 6 well plate. Subsequently, cells were infected with MSCV-BCR-ABL-IRES-YFP (or CFP) to generate CML, or MSCV-BCR-ABL-IRES-YFP (or CFP) and MSCV-NUP98-HOXA9-IRES-YFP (or NGFR) to generate AML. Cells were harvested 48 hours after infection and transplanted retro-orbitally into groups of 4-7 recipient mice. Recipients were lethally irradiated (10 Gy) for CML, and sublethally irradiated (7 Gy) for AML. For Numb overexpression, cells were infected with either MSCV-Numb-IRES-GFP (or hCD2) or MSCV-IRES-GFP (or hCD2) along with MSCV-BCR-ABL-IRES-YFP (or CFP) and MSCV-NUP98-HOXA9-IRES-NGFR (or YFP) and 20,000 to 100,000 sorted infected cells were transplanted per mouse. For secondary transplantation, cells from primary transplanted mice were sorted for either MSCV-Numb-IRES-GFP and MSCV-NUP98-HOXA9-YFP or MSCV-IRES-GFP and MSCV-NUP98-HOXA9-YFP, and 7,000 to 8,000 cells were transplanted per mouse. For ICN experiments, cells were infected with MSCV-ICN-IRES-CFP and MSCV-BCR-ABL-GFP, MSCV-ICN-IRES-CFP and MSCV-IRES-GFP, or MSCV-BCR-ABL-IRES-GFP and MSCV-IRES-CFP, and 10,000 to 20,000 KLS-derived or 200,000 to 500,000 c-kit+-derived sorted cells were transplanted per mouse. For the TNR mouse model, cells were infected with MSCV-BCR-ABL-IRES-YFP (or CFP) to generate CML or MSCV-BCR-ABL-IRES-YFP (or CFP) and MSCV-NUP98-HOXA9-IRES-NGFR to generate AML. 10,000 to 80,000 unsorted cells were transplanted per mouse. After transplantation, recipient mice were subsequently maintained on antibiotic water (sulfamethoxazole and trimethoprim) and evaluated daily for signs of morbidity, weight loss, failure to thrive, and splenomegaly. Premorbid animals were sacrificed by CO2 asphyxiation followed by cervical dislocation. Subsequently relevant tissues were harvested and analyzed by flow cytometry and histopathology.
Data shown is representative of two to three independent experiments.
The impact of Msi2 loss in AML propagation in vivo was also tested. Lin-negative cells from full blown AML were transduced either with an Msi2 shRNA retrovirus or luciferase shRNA virus, and the cells were transplanted into sublethally-irradiated mice. 11 of 13 mice transplanted with control knockdown AML became sick by 1 month post transplant.
Serial transplants were also done to test the presence of leukemia-initiating ability of control and Msi2 knockdown AML cells from the mice who suffered from leukemia.

Msi2 transcript = assay: Msi2 knockdown measured by realtime RT-PCR; assay type: cell-based, mouse; conditions: Lin− cells from NUP98-HOXA9/BCR-ABL blast crisis leukemias; compared with shLuc control
Procedure: RNA was isolated using RNAqueous-Micro (Ambion), levels were equalized, and RNA was converted to cDNA using Superscript II reverse transcriptase (Invitrogen). Quantitative real time PCRs were performed using an iCycler (BioRad) by mixing cDNAs, iQ SYBR Green Supermix (BioRad) and gene specific primers. Results were normalized to the level of beta-2-microglobulin (B2m). Primer sequences are as follows: Numb-F, […] (SEQ ID NO: 1); Numb-R, […] (SEQ ID NO: 2); Msi1-F, […] (SEQ ID NO: 3); Msi1-R, […] (SEQ ID NO: 4); Msi2-F, […] (SEQ ID NO: 5); Msi2-R, […] (SEQ ID NO: 6); B2m-F, […] (SEQ ID NO: 7); B2m-R, […] (SEQ ID NO: 8).
(§1) To determine if inhibiting Msi2 could impact the growth of established CML, and to rule out the possibility that the reduced incidence of leukemia in Gt mutants was due to developmental defects and examine if Msi2 knockdown affects AML maintenance, Msi expression was targeted using an alternate shRNA approach. A lineage-negative population was sorted from full blown AML cells, which contains AML stem cells. Lin− cells from NUP98-HOXA9/BCR-ABL-induced blast crisis leukemias were infected with either an shRNA retrovirus targeting Msi2 (shMsi; SEQ ID NO: 9) or firefly luciferase (shLuc; SEQ ID NO: 10) as a negative control and resorted, and Msi2 expression was analyzed by realtime RT-PCR. […] Error bars represent s.e.m. of triplicate PCRs (**p<0.01).

[1] = system: blast crisis CML (AML) cells; assay: Colony forming assay in methylcellulose media after Msi2 shRNA delivery; assay type: cell-based, mouse
Procedure: Lineage negative, NUP98-HOXA9-YFP positive cells from AML were sorted and infected retrovirally with either Vector-IRES-GFP or Numb-IRES-GFP. After 48 hours of infection, cells were sorted and serially plated on complete methylcellulose medium (Methocult GF M3434 from StemCell Technologies).
as §1
As a control, shRNA against LacZ was used. Error bars represent s.e.m. of triplicate PCRs (**p<0.01). […] Error bars represent s.e.m. of triplicate assay wells (**p<0.01). […] Error bars represent s.e.m. of triplicate PCRs (**p<0.01).

shMsi: shRNA retrovirus targeting Msi2, SEQ ID NO: 9, 5′-CCCAGATAGCCTTAGAGACTAT-3′
AML incidence in serial transplants (blast crisis CML / AML; 3000 or 10,000 cells transplanted): loss in AML incidence | mice surviving beyond 1 month (blast crisis CML / AML; Lin-negative AML cells transduced, sublethally irradiated mice, 11 of 13 control mice sick by 1 month): more than half | differentiation of leukemias that occurred (blast crisis CML / AML; Wright's stain of leukemic cells, primary transplant): more differentiated | ability to propagate disease (mice succumbing) (blast crisis CML / AML; mice transplanted with Lin− cells from primary shRNA expressing leukemias, control 87%): 25% | disease incidence in vivo (survival curve) (blast crisis CML / AML; primary transplant of established blast crisis CML cells, vs shLuc): reduced disease incidence in vivo | transplanted leukemic cells in peripheral blood of surviving mice (blast crisis CML / AML; surviving mice): no detectable levels of transplanted leukemic cells | reduction in Msi2 transcript levels (Msi2 transcript): 75-90% | colony growth in vitro ([1]; established blast crisis CML cells, vs control shRNA): reduced colony growth in vitro | reduction in the number of colonies formed ([1]; methylcellulose media, Msi2 knockdown AML cells): 50-70%
